Here are results for 22 molecules from patent US9040725B2, “Benzocycloheptane and benzoxepine derivatives” (Janssen Pharmaceutica NV, priority 2008, dated 2015).

Structures can show the parent of a compound that is named as a salt. Where two headings read alike, the source gives them in different places. Ends that are not written are not given here. Some results are limits rather than exact numbers.

One may read the melting point as the temperature, or range, at which the solid turns liquid.

For one data set, the system named is NMRI-mice. The data set is described as follows: Acceleration of gastric emptying and small intestinal propulsion in NMRI-mice. Format: in vivo. The note with it: Mus musculus, sc, lowest active dose, subcutaneous, 30 min before phenol red test meal. In a few lines:
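Male NMRI mice (~25 g, fasted 20 h) received compound sc 30 min before a 0.3 ml gavaged chocolate nutridrink meal with phenol red (5 mg/ml). LAD is the lowest active dose per parameter.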

In the next data set the target is T1, GHS1A-receptor (Homo sapiens, UniProt Q92847).
T1 construct: expressed in transfected cells; host or cells: HEK293
The data set can be described thus: Ghrelin-agonism in HEK293 cells (intracellular calcium, FLIPR). Format: cell-based. The note with it: HEK293 cells permanently transfected with GHS1A-receptor, calcium fluorescence (fluo-4 or Kit-3), EC50 in M, read-out: pEC50 (converted). The gist of the method: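 HEK293 cells stably expressing GHS1A receptor loaded with fluo-4 or Kit-3 for 1 h at 37° C. Compound-triggered calcium fluorescence (ex 488, em >520 nm) recorded on FLIPR; response expressed relative to maximal ionomycin signal.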

The next data set relates to GHS1A-r-/- (KO) mice. The data set can be described thus: Acceleration of gastric emptying in GHS1A-r-/- (KO) mice. The data set is classed as in vivo. Conditions: 10 mg/kg subcutaneous 30 minutes before test meal, 15 minutes after meal. The method, then: (§1) FIG. 1 describes the gastric content (measured as extinction units of phenol red) remaining 15 minutes after administration of a phenol red containing test meal by oral gavage in GHS1A-r^+/+ (WT) and GHS1A-r^−/− (KO) mice pretreated with saline (Vehicle) or compound 3 (10 mg/kg SC) 30 minutes before the meal (individual data and mean, n=3).
(§2) Male NMRI-mice weighing around 25 gram were fasted for 20 h and had free access to drinking water. Test compounds were administered to the animals by subcutaneous route 30 min before they were given a test meal by oral gavage. The test meal consisted of 0.3 ml of a chocolate nutridrink solution (1.0 kcal/ml) containing phenol red marker (5 mg/ml). Fifteen min after administration of the meal, the mice were sacrificed by CO2 gas inhalation. The phenol red content remaining in the stomach (extracted from the stomach with NaOH) was determined at 557 nm in a spectrophotometer and expressed as extinction units. Small intestinal propulsion was determined as the distance traveled by the phenol red marker through the intestine and expressed as a percentage of total small intestinal length (from the pylorus to the ileo-cecal junction). […]

For the next data set, the system named is GHS1A-r+/+ (WT) mice. The data set can be described thus: Acceleration of gastric emptying in wild type (GHS1A-r+/+, WT) mice. The note with it: 10 mg/kg subcutaneous 30 minutes before test meal, 15 minutes after meal. The data set is classed as in vivo. As to the method:
as §1, §2

The test system of data set [1] is transgenic mice with a deletion of GHS1A-r. The data set can be described thus: In house study: gastric emptying after ghrelin in transgenic mice with a deletion of GHS1A-r. Format: in vivo. The note with it: administered up to 2.5 mg/kg. The source says:
(§3) These observations confirm that the gastrointestinal pro-kinetic properties of ghrelin-ligands are mediated by direct interaction with GHS1A-r. Small molecules showing affinity for the GHS1A-r and activating it are therefore anticipated to stimulate gastrointestinal motility in general, and gastric emptying in particular.

The test system of another data set is mice. The data set is described as follows: In house study: gastric emptying of a test meal after intravenous ghrelin in mice. Format: in vivo. Conditions: intravenous administration to mice; 95% confidence interval 0.058-0.174.
Description: as §3

The mark [2] stands for this setting: active when >60% of animals had phenol red front beyond 85% of small intestinal length, read-out: LAD (mg/kg) Small intestinal propulsion.
[3] abbreviates: stomach content 15 min after meal, active when >60% of animals below 0.9 extinction units, read-out: LAD (mg/kg) Gastric emptying.

T1 sequence (Q92847 whole entry): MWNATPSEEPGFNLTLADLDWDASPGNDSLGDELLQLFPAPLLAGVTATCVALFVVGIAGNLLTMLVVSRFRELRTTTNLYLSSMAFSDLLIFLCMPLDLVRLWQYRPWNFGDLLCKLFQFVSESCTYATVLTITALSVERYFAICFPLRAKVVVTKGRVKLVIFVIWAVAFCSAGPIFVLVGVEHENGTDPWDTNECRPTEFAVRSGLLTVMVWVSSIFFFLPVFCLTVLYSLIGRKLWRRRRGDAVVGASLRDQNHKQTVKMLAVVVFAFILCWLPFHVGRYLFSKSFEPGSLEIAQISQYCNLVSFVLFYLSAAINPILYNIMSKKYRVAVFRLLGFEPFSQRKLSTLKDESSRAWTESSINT

`CCN(CC)CCCC1(O)c2ccccc2CCCC1c1ccc(F)cc1F` (racemic) (as salt: oxalate) [Compound 57] yielded a melting point of 160.3 °C.
The same measure, in the same setting: for `COCCN(C)CCCC1(O)c2ccccc2CCCC1c1ccc(F)cc1F` (racemic) (as salt: oxalate) [Compound 58] the value was 140 °C.
In turn, `OC1(CCCN2CCCCC2)c2ccccc2CCCC1c1ccc(F)cc1F` (racemic) (as salt: oxalate) [Compound 59] gave a melting point of 211.5 °C.
Still for that read-out and setting: for `CNCCCC1(O)c2ccccc2CCCC1c1ccc(OC)cc1` (racemic) (as salt: oxalate) [Compound 65] the value was 134.3 °C; for `COc1ccc(C2CCCc3ccccc3C2(O)CCCN(C)C)cc1` (racemic) (as salt: oxalate) [Compound 66], 100 °C; for `CCN(CC)CCCC1(O)c2ccccc2CCCC1c1ccc(OC)cc1` (racemic) (as salt: oxalate) [Compound 67], 153 °C.
Still for that read-out and setting: next, `COCCN(C)CCCC1(O)c2ccccc2CCCC1c1ccc(OC)cc1` (racemic) (as salt: oxalate) [Compound 70]: 132.2 °C.
On to `Cc1ccc(C2CCCc3ccccc3C2(O)CCCN2CCCC2)cc1` (racemic) [Compound 28], for which the melting point was 139.8 °C. In addition, in the data set on NMRI-mice (setting [2]), the minimal effective dose was > 10 mg/kg. Further, in the data set on NMRI-mice (setting [3]), the minimal effective dose is > 10 mg/kg. In addition, the EC50 at GHS1A-receptor is 158 nM.
`CC(=O)N1CCN(CCCC2(O)c3ccccc3CCCC2c2ccc(C)cc2)CC1` (racemic) [Compound 34] had a melting point of 216.2 °C. Also, the EC50 on GHS1A-receptor is 3160 nM.
The corresponding values for `CCN(CC)CCCC1(O)c2ccccc2CCCC1c1ccc(O)cc1` (racemic) [Compound 36] are 141.4 °C and 6310 nM.
The molecule `COc1cccc(C2CCCc3ccccc3C2(O)CCCN2CCN(C(C)=O)CC2)c1` (racemic) [Compound 63] registered a melting point of 153 °C. Besides, the EC50 at GHS1A-receptor was > 10000 nM.
`COc1ccc(C2CCCc3ccccc3C2(O)CCCN2CCN(C(C)=O)CC2)cc1` (racemic) [Compound 71] gave a melting point of 165.1 °C. For the same molecule, the EC50 at GHS1A-receptor was > 10000 nM.
In the same order, the values of `CN(C)CCCC1(O)c2ccccc2CCCC1c1cncnc1` (racemic) [Compound 84] are 134.3 °C and 7940 nM.
Turning to `CN(C)CCCC1(O)c2ccccc2CCCC1c1cnc2ccccc2c1` (racemic) [Compound 85], the melting point was found to be 150.3 °C. In the data set on NMRI-mice (setting [2]), the minimal effective dose is > 10 mg/kg. For the same molecule, the minimal effective dose in the data set with NMRI-mice (setting [3]) was > 10 mg/kg. On GHS1A-receptor, the EC50 was 100 nM.
`CC(C)NCCCC1(O)c2ccccc2CCCC1c1cnc2ccccc2c1` (racemic) [Compound 86]: the melting point stood at 115.2 °C. Also, on GHS1A-receptor, the EC50 was 631 nM.
`CN(C)CCC[C@@]1(O)c2ccccc2OCC[C@@H]1c1ccccc1` (relative stereo) (as salt: oxalate) [Compound 8] had a melting point of 136 °C.
On the same count and under the same terms, for `Oc1ccc([C@H]2CCCc3ccccc3[C@]2(O)CCCN2CCOCC2)cc1` (relative stereo) [Compound 7] the value was 177.1 °C; for `CN(C)CCCC1(O)c2ccccc2CCCC1c1ccc(Cl)cc1` (single isomer, unassigned) (as salt: oxalate) [Compound 3], 168.7 °C.
The same measure, in the same setting: next, `CN(C)CCCC1(O)c2ccccc2CCCC1c1ccccc1` (single isomer, unassigned) (as salt: oxalate) [Compound 104]: 210 °C; `CN(C)CCCC1(O)c2ccccc2CCCC1c1ccccc1` (single isomer, unassigned) (as salt: oxalate) [Compound 105]: 178 °C.
With `CN(C)CCCC1(O)c2ccccc2CCCC1c1ccc(Cl)cc1` (single isomer, unassigned) [Compound 3], the minimal effective dose with NMRI-mice (setting [2]) and in the data set on NMRI-mice (setting [3]) was 0.63 mg/kg in each case. The “meal content remaining in the stomach versus vehicle” value was “no difference in remaining gastric content” with GHS1A-r-/- (KO) mice and “emptied more than vehicle treated WT mice” with GHS1A-r+/+ (WT) mice. For the same molecule, the EC50 at GHS1A-receptor was 20 nM.
On to “ghrelin (GSSFLSPEHQRVQQRKESKKPPAKLQPR; ends and bridges not checked; UniProt Q9UBU3 24-51, looked up) ["an endogenous peptide hormone ... the natural ligand for the type 1 growth hormone secretagogue receptor (GHS1A-r)"]”, for which the “effect on gastric emptying” value in data set [1] is on record as “no effect”. The “ED50 stimulation of gastric emptying of a test meal” value with mice is reported as 0.100 mg/kg.
